Measured values reported in patent publication US7763648B2, “Oxa-steroids derivatives as selective progesterone receptor modulators” (Janssen Pharmaceutica N.V., priority 2006, dated 2010).

Legend:
[1] = test system: T47D human breast cancer cells; experiment: T47D Human Breast Cancer Cells Assay (alkaline phosphatase); type: cell-based; conditions: 24 h with test compound, luminescence
Description: T47D Human Breast Cancer Cells Assay
T47D human breast cancer cells were grown in RPMI medium without phenol red (Invitrogen) containing 10% (v/v) heat-inactivated fetal bovine serum (FBS; Hyclone), 1% (v/v) penicillin-streptomycin (Invitrogen), 1% (w/v) glutamine (Invitrogen), and […] insulin (Sigma). Incubation conditions were 37° C. in a humidified 5% (v/v) carbon dioxide environment.
The cells were plated in 96-well tissue culture plates at 10,000 cells per well in assay medium [RPMI medium without phenol red (Invitrogen) containing 5% (v/v) charcoal-treated FBS (Hyclone) and 1% (v/v) penicillin-streptomycin (Invitrogen)]. Two days later, the medium was decanted and test compound or control were added at a final concentration of 0.1% (v/v) dimethyl sulfoxide in fresh assay medium. Twenty-four hours later, an alkaline phosphatase assay was performed using a SEAP kit (BD Biosciences Clontech, Palo Alto, Calif.). Briefly, the medium was decanted and the cells were fixed for 30 minutes at room temperature with 5% (v/v) formalin (Sigma). The cells were washed once with room temperature Hank's buffered saline solution (Invitrogen). Equal volumes (0.05 mL) of 1× Dilution Buffer, Assay Buffer and 1:20 substrate/enhancer mixture were then added. After 1 hour incubation at room temperature in the dark, the lysate was transferred to a white 96-well plate (Dynex) and luminescence was read using a LuminoSkan Ascent (Thermo Electron, Woburn, Mass.).

[2] = test system: A549 Human lung carcinoma cells; experiment: A549 Human Lung Cell Assay (transfected, dexamethasone challenge, Luc-assay); type: cell-based; conditions: Dexamathasone challenge, 24 h
Description: A549 Human Lung Cell Assay
A549 Human lung carcinoma cells were grown in F-12K Nutrient Mixture containing 10% (v/v) fetal bovine serum (FBS; Invitrogen), 2 mM glutamine and 0.15% sodium dicarbonate (Invitrogen).
A549 cells were split 1 to 3 in 175 cm tissue culture flask. The cells were incubated at 37° C. in CO2 incubator until the cells were 95% confluent (typically 24-30 hours).
The following solutions were prepared in sterile tubes: (a) Solution A: 1.5 μg/ml of DNA in 8.5 ml OPTI-MEM I Reduced Serum Medium. (GIBCO cat# 31985) and (b) Solution B: 6 μl/ml of DMRIE-C Reagent into […] OPTI-MEM I. The two solutions were combined and mixed gently, then incubated at room temperature for 40 minutes.
The A549 cells prepared above were washed with […] of OPTI-MEM I. The medium was removed and 17 ml of the lipid-DNA complex solution was overlayed onto cells. The cells ere then incubated for 16 h at 37° C. in CO2 incubator. The DNA-containing medium was removed and 30 ml of growth medium was added. (5% Charcoal treated FBS) After 5-6 h, the cells were seeded in a 96 well plate and the cells incubated overnight at 37° C. in CO2 incubator.
To each well was then added 5 μl of test compounds and the cells incubated at 37° C. for 10 min. 5 μL of Dexamathasone (CAS [50-02-2]), was then added to each well for challenger and the cells incubated at 37° C. in CO2 incubator for 24 h. 100 μl of Luc-assay buffer was then added into each cell well and the cells incubated for 30 min at room temperature. A 150 μL sample from each well was then transferred into a DYNEX Microlitel plate and read on Top-counter.

| SMILES | IC50 [1] | IC50 [2] |
| --- | --- | --- |
| CN(C)c1ccc([C@H]2C[C@@]3(C)[C@@H](CC[C@@]3(O)C#Cc3ccc(C#N)cc3)[C@@H]3OCC4=CC(=O)CCC4=C32)cc1 [Compound 14, 4-[11-(4-Dimethylamino-phenyl)-17-hydroxy-13-methyl-3-oxo-1,2,3,6,8,11,12,13,14,15,16,17-dodecahydro-7-oxa-cyclopenta[a]phenanthren-17-ylethynyl]-benzonitrile] | 3.67 nM | 41.3 nM |
| COc1ccc(C#C[C@]2(O)CC[C@H]3[C@@H]4OCC5=CC(=O)CCC5=C4[C@@H](c4ccc(N(C)C)cc4)C[C@@]32C)cc1 [Compound 15, 11-(4-Dimethylamino-phenyl)-17-hydroxy-17-(4-methoxy-phenylethynyl)-13-methyl-1,2,8,11,12,13,14,15,16,17-decahydro-6H-7-oxa-cyclopenta[a]phenanthren-3-one] | 3.2 nM | 80.3 nM |
| CN(C)c1ccc([C@H]2C[C@@]3(C)[C@@H](CC[C@@]3(O)C#Cc3ccccc3F)[C@@H]3OCC4=CC(=O)CCC4=C32)cc1 [Compound 16, 11-(4-Dimethylamino-phenyl)-17-(2-fluoro-phenylethynyl)-17-hydroxy-13-methyl-1,2,8,11,12,13,14,15,16,17-decahydro-6H-7-oxa-cyclopenta[a]phenanthren-3-one] | 1.43 nM | 65.1 nM |
| CN(C)c1ccc([C@H]2C[C@@]3(C)[C@@H](CC[C@@]3(O)C#Cc3cccc(F)c3)[C@@H]3OCC4=CC(=O)CCC4=C32)cc1 [Compound 17, 11-(4-Dimethylamino-phenyl)-17-(3-fluoro-phenylethynyl)-17-hydroxy-13-methyl-1,2,8,11,12,13,14,15,16,17-decahydro-6H-7-oxa-cyclopenta[a]phenanthren-3-one] | 1.02 nM | 56.6 nM |
| CN(C)c1ccc([C@H]2C[C@@]3(C)[C@@H](CC[C@@]3(O)C#Cc3cc(F)cc(F)c3)[C@@H]3OCC4=CC(=O)CCC4=C32)cc1 [Compound 18, 17-(3,5-Difluoro-phenylethynyl)-11-(4-dimethylamino-phenyl)-17-hydroxy-13-methyl-1,2,8,11,12,13,14,15,16,17-decahydro-6H-7-oxa-cyclopenta[a]phenanthren-3-one] | 0.905 nM | 34.4 nM |
| CN(C)c1ccc([C@H]2C[C@@]3(C)[C@@H](CC[C@@]3(O)C#Cc3ccccc3Cl)[C@@H]3OCC4=CC(=O)CCC4=C32)cc1 [Compound 19, 17-(2-Chloro-phenylethynyl)-11-(4-dimethylamino-phenyl)-17-hydroxy-13-methyl-1,2,8,11,12,13,14,15,16,17-decahydro-6H-7-oxa-cyclopenta[a]phenanthren-3-one] | 1.08 nM | 64.8 nM |
| CN(C)c1ccc([C@H]2C[C@@]3(C)[C@@H](CC[C@@]3(O)C#Cc3cccc(Cl)c3)[C@@H]3OCC4=CC(=O)CCC4=C32)cc1 [Compound 20, 17-(3-Chloro-phenylethynyl)-11-(4-dimethylamino-phenyl)-17-hydroxy-13-methyl-1,2,8,11,12,13,14,15,16,17-decahydro-6H-7-oxa-cyclopenta[a]phenanthren-3-one] | 12.5 nM | 48.9 nM |
| CN(C)c1ccc([C@H]2C[C@@]3(C)[C@@H](CC[C@@]3(O)C#Cc3ccccc3Br)[C@@H]3OCC4=CC(=O)CCC4=C32)cc1 [Compound 21, 17-(2-Bromo-phenylethynyl)-11-(4-dimethylamino-phenyl)-17-hydroxy-13-methyl-1,2,8,11,12,13,14,15,16,17-decahydro-6H-7-oxa-cyclopenta[a]phenanthren-3-one] | 8.6 nM | 62.7 nM |
| CN(C)c1ccc([C@H]2C[C@@]3(C)[C@@H](CC[C@@]3(O)C#Cc3ccccc3C(F)(F)F)[C@@H]3OCC4=CC(=O)CCC4=C32)cc1 [Compound 22, 11-(4-Dimethylamino-phenyl)-17-hydroxy-13-methyl-17-(2-trifluoromethyl-phenylethynyl)-1,2,8,11,12,13,14,15,16,17-decahydro-6H-7-oxa-cyclopenta[a]phenanthren-3-one] | 3.15 nM | 51 nM |
| CN(C)c1ccc([C@H]2C[C@@]3(C)[C@@H](CC[C@@]3(O)C#Cc3cccc(C(F)(F)F)c3)[C@@H]3OCC4=CC(=O)CCC4=C32)cc1 [Compound 23, 11-(4-Dimethylamino-phenyl)-17-hydroxy-13-methyl-17-(3-trifluoromethyl-phenylethynyl)-1,2,8,11,12,13,14,15,16,17-decahydro-6H-7-oxa-cyclopenta[a]phenanthren-3-one] | 2.65 nM | 45.4 nM |
| Cc1ccccc1C#C[C@]1(O)CC[C@H]2[C@@H]3OCC4=CC(=O)CCC4=C3[C@@H](c3ccc(N(C)C)cc3)C[C@@]21C [Compound 24, 11-(4-Dimethylamino-phenyl)-17-hydroxy-13-methyl-17-o-tolylethynyl-1,2,8,11,12,13,14,15,16,17-decahydro-6H-7-oxa-cyclopenta[a]phenanthren-3-one] | 5.8 nM | 113 nM |
| Cc1cccc(C#C[C@]2(O)CC[C@H]3[C@@H]4OCC5=CC(=O)CCC5=C4[C@@H](c4ccc(N(C)C)cc4)C[C@@]32C)c1 [Compound 25, 11-(4-Dimethylamino-phenyl)-17-hydroxy-13-methyl-7-m-tolylethynyl-1,2,8,11,12,13,14,15,16,17-decahydro-6H-7-oxa-cyclopenta[a]phenanthren-3-one] | 2.85 nM | 36.3 nM |
| CN(C)c1ccc([C@H]2C[C@@]3(C)[C@@H](CC[C@@]3(O)C#Cc3ccsc3)[C@@H]3OCC4=CC(=O)CCC4=C32)cc1 [Compound 29, 11-(4-Dimethylamino-phenyl)-17-hydroxy-13-methyl-17-thiophen-3-ylethynyl-1,2,8,11,12,13,14,15,16,17-decahydro-6H-7-oxa-cyclopenta[a]phenanthren-3-one] | 1.55 nM | 56 nM |
| CN(C)CC#C[C@]1(O)CC[C@H]2[C@@H]3OCC4=CC(=O)CCC4=C3C(c3ccc(N(C)C)cc3)C[C@@]21C (stereo partly shown) [Compound 31] | > 1000 nM | > 3000 nM |
